Converted amounts (≈) assume the structure as drawn. *1 amine or outer side, *2 acyl side, *3 side chain or, on linkers, in order; H or OH if unused. Where a SMILES comes first, the peptide text is derived from it. Side-chain parts run from the residue outwards. [ ]: non-standard residue; d: D form. The star is where a group is joined. γGlu = O=C(O)[C@H](CCC(=O)[*:2])N[*:1]; Palmitoyl = CCCCCCCCCCCCCCCC(=O)*
Experiments:
physchem = type: physicochemical
Experimental: Prior to the testing of solubility and stability of a peptide batch, its content was determined. Therefore, two parameters were investigated, its purity (HPLC-UV) and the amount of salt load of the batch (ion chromatography). Since synthesized peptides contain primarily trifluoracetate anions, only anion chromatography was performed. The content was then calculated based on the assumption that peptide-related impurities are detected at the same UV-absorption rate as the target peptide, as well as that cations are not present in the sample.
Therefore, solutions from solid samples were prepared in different buffer systems with a concentration of 1.0 mg/mL compound based on the previously determined content. HPLC-UV was performed after 2 h of gentle agitation from the supernatant, which was obtained by 20 min of centrifugation at 4000 rpm. […] This analysis also served as t0 for the stability testing.
Instrument: Agilent 1100, column: X-Bridge C18 3.5 μm 2.1×150 mm (Waters), eluent: A: H20+500 ppm TFA/B: Methanol, flow: 0.55 ml/min, gradient: 0-5 min: 10-60% B; 5-15 min: 60-99% B; detection: 214 nm.

[1] = biological target: T1, human GLP-1 receptor (hGLP-1 R) (Homo sapiens, UniProt P43220); assay: cAMP response (HTRF) of HEK-293 cells stably expressing human GLP-1 receptor; type: cell-based; settings: HEK-293 cells expressing human GLP-1 receptor, cAMP formation
T1 construct: expressed in transfected cells; host or cells: HEK-293
Outline: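 Detached HEK-293 cells stably expressing the receptor were suspended in HBSS with 20 mM HEPES, 0.1% BSA and 2 mM IBMX. Test compound was added for 30 min at room temperature, and cellular cAMP was quantified by HTRF.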

T1 sequence (P43220 24-463): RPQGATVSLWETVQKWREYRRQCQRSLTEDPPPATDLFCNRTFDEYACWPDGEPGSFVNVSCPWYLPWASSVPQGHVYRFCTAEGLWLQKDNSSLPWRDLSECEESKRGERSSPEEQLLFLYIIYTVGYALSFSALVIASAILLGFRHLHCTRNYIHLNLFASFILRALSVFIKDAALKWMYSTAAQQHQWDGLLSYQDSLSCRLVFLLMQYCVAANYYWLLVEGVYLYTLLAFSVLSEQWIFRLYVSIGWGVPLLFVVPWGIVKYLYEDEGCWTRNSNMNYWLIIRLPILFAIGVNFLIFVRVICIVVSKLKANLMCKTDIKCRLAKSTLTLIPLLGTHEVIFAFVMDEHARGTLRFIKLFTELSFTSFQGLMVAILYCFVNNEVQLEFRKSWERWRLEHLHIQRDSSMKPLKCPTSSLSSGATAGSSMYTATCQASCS

Structure (SMILES)	solubility at 2 h (physchem; pH 4.5)	solubility at 2 h (physchem; pH 7.4)	EC50 [1]
CCCCCCCCCCCCCCCC(=O)N[C@@H](CCC(=O)NCCCC[C@H](NC(=O)[C@H](CO)NC(=O)[C@@H]1CCCN1C(=O)[C@@H]1CCCN1C(=O)[C@@H]1CCCN1C(=O)[C@H](C)NC(=O)CNC(=O)[C@H](CO)NC(=O)[C@H](CO)NC(=O)[C@@H]1CCCN1C(=O)CNC(=O)CNC(=O)[C@H](C)NC(=O)[C@H](CCCCN)NC(=O)[C@H](CC(C)C)NC(=O)[C@H](Cc1c[nH]c2ccccc12)NC(=O)[C@H](CCC(=O)O)NC(=O)[C@@H](NC(=O)[C@H](Cc1ccccc1)NC(=O)[C@H](CC(=O)O)NC(=O)[C@H](CCC(N)=O)NC(=O)[C@H](C)NC(=O)[C@H](CCCNC(=N)N)NC(=O)[C@H](CCCNC(=N)N)NC(=O)[C@H](CO)NC(=O)[C@H](CCC(=O)O)NC(=O)[C@H](CCSC)NC(=O)[C@H](CCC(N)=O)NC(=O)[C@H](CCCCN)NC(=O)[C@H](CO)NC(=O)[C@H](CC(C)C)NC(=O)[C@H](CC(=O)O)NC(=O)[C@H](CO)NC(=O)[C@@H](NC(=O)[C@H](Cc1ccccc1)NC(=O)[C@@H](NC(=O)CNC(=O)[C@H](CCC(N)=O)NC(=O)[C@@H](CO)NC(=O)[C@@H](N)Cc1c[nH]cn1)[C@@H](C)O)[C@@H](C)O)[C@@H](C)CC)C(N)=O)C(=O)O [(63)] (H-H[dS]QGTFTSDLSKQMESRRAQDFIEWLKAGGPSSGAPPPSK([γGlu-Palmitoyl])-NH2)	> 1000 µg/mL	> 1000 µg/mL	–
CCCCCCCCCCCCCCCC(=O)N[C@@H](CCC(=O)NCCCC[C@H](NC(=O)[C@H](CO)NC(=O)[C@@H]1CCCN1C(=O)[C@@H]1CCCN1C(=O)[C@@H]1CCCN1C(=O)[C@H](C)NC(=O)CNC(=O)[C@H](CO)NC(=O)[C@H](CO)NC(=O)[C@@H]1CCCN1C(=O)CNC(=O)CNC(=O)[C@H](CCCNC(=N)N)NC(=O)[C@H](CCCCN)NC(=O)[C@H](CC(C)C)NC(=O)[C@H](Cc1c[nH]c2ccccc12)NC(=O)[C@H](CCC(=O)O)NC(=O)[C@@H](NC(=O)[C@H](Cc1ccccc1)NC(=O)[C@H](CC(=O)O)NC(=O)[C@H](CCC(N)=O)NC(=O)[C@H](C)NC(=O)[C@H](CCCNC(=N)N)NC(=O)[C@H](CCCNC(=N)N)NC(=O)[C@H](CO)NC(=O)[C@H](CCC(=O)O)NC(=O)[C@H](CCSC)NC(=O)[C@H](CCC(N)=O)NC(=O)[C@H](CCCCN)NC(=O)[C@H](CO)NC(=O)[C@H](CC(C)C)NC(=O)[C@H](CC(=O)O)NC(=O)[C@H](CO)NC(=O)[C@@H](NC(=O)[C@H](Cc1ccccc1)NC(=O)[C@@H](NC(=O)CNC(=O)[C@H](CCC(N)=O)NC(=O)[C@@H](CO)NC(=O)[C@@H](N)Cc1c[nH]cn1)[C@@H](C)O)[C@@H](C)O)[C@@H](C)CC)C(N)=O)C(=O)O [(75)] (H-H[dS]QGTFTSDLSKQMESRRAQDFIEWLKRGGPSSGAPPPSK([γGlu-Palmitoyl])-NH2)	> 1000 µg/mL	> 1000 µg/mL	4.6 pM
CCCCCCCCCCCCCCCC(=O)N[C@@H](CCC(=O)NCCCC[C@H](NC(=O)[C@H](CO)NC(=O)[C@@H]1CCCN1C(=O)[C@@H]1CCCN1C(=O)[C@@H]1CCCN1C(=O)[C@H](C)NC(=O)CNC(=O)[C@H](CO)NC(=O)[C@H](CO)NC(=O)[C@@H]1CCCN1C(=O)CNC(=O)[C@@H](C)NC(=O)[C@H](CCCNC(=N)N)NC(=O)[C@H](CCCCN)NC(=O)[C@H](CC(C)C)NC(=O)[C@H](Cc1c[nH]c2ccccc12)NC(=O)[C@H](CCC(=O)O)NC(=O)[C@@H](NC(=O)[C@H](Cc1ccccc1)NC(=O)[C@H](CC(=O)O)NC(=O)[C@H](CCC(N)=O)NC(=O)[C@H](C)NC(=O)[C@H](CCCNC(=N)N)NC(=O)[C@H](CCCNC(=N)N)NC(=O)[C@H](CO)NC(=O)[C@H](CCC(=O)O)NC(=O)[C@H](CCSC)NC(=O)[C@H](CCC(N)=O)NC(=O)[C@H](CCCCN)NC(=O)[C@H](CO)NC(=O)[C@H](CC(C)C)NC(=O)[C@H](CC(=O)O)NC(=O)[C@H](CO)NC(=O)[C@@H](NC(=O)[C@H](Cc1ccccc1)NC(=O)[C@@H](NC(=O)CNC(=O)[C@H](CCC(N)=O)NC(=O)[C@@H](CO)NC(=O)[C@@H](N)Cc1c[nH]cn1)[C@@H](C)O)[C@@H](C)O)[C@@H](C)CC)C(N)=O)C(=O)O [(76)] (H-H[dS]QGTFTSDLSKQMESRRAQDFIEWLKR[dA]GPSSGAPPPSK([γGlu-Palmitoyl])-NH2)	952 µg/mL (≈ 199 µM)	> 1000 µg/mL	–
CCCCCCCCCCCCCCCC(=O)N[C@@H](CCC(=O)NCCCC[C@H](NC(=O)[C@H](CO)NC(=O)[C@@H]1CCCN1C(=O)[C@@H]1CCCN1C(=O)[C@@H]1CCCN1C(=O)[C@H](C)NC(=O)CNC(=O)[C@H](CO)NC(=O)[C@H](CO)NC(=O)[C@@H]1CCCN1C(=O)CNC(=O)CNC(=O)[C@H](CC(N)=O)NC(=O)[C@H](CCCCN)NC(=O)[C@H](CC(C)C)NC(=O)[C@H](Cc1c[nH]c2ccccc12)NC(=O)[C@H](CCC(=O)O)NC(=O)[C@@H](NC(=O)[C@H](Cc1ccccc1)NC(=O)[C@H](CC(=O)O)NC(=O)[C@H](CCCCN)NC(=O)[C@H](C)NC(=O)[C@H](CCCNC(=N)N)NC(=O)[C@H](CCCNC(=N)N)NC(=O)[C@H](CCC(=O)O)NC(=O)[C@H](CC(=O)O)NC(=O)[C@H](CCSC)NC(=O)[C@H](CCC(N)=O)NC(=O)[C@H](CCCCN)NC(=O)[C@H](CO)NC(=O)[C@H](CC(C)C)NC(=O)[C@H](CC(=O)O)NC(=O)[C@H](CO)NC(=O)[C@@H](NC(=O)[C@H](Cc1ccccc1)NC(=O)[C@@H](NC(=O)CNC(=O)[C@H](CCC(N)=O)NC(=O)[C@@H](CO)NC(=O)[C@@H](N)Cc1c[nH]cn1)[C@@H](C)O)[C@@H](C)O)[C@@H](C)CC)C(N)=O)C(=O)O [(70)] (H-H[dS]QGTFTSDLSKQMDERRAKDFIEWLKNGGPSSGAPPPSK([γGlu-Palmitoyl])-NH2)	> 1000 µg/mL	> 1000 µg/mL	–
CCCCCCCCCCCCCCCC(=O)N[C@@H](CCC(=O)NCCCC[C@H](NC(=O)[C@H](CO)NC(=O)[C@@H]1CCCN1C(=O)[C@@H]1CCCN1C(=O)[C@@H]1CCCN1C(=O)[C@H](C)NC(=O)CNC(=O)[C@H](CO)NC(=O)[C@H](CO)NC(=O)[C@@H]1CCCN1C(=O)CNC(=O)CNC(=O)[C@H](CO)NC(=O)[C@H](CCCCN)NC(=O)[C@H](CC(C)C)NC(=O)[C@H](Cc1c[nH]c2ccccc12)NC(=O)[C@H](CCC(=O)O)NC(=O)[C@@H](NC(=O)[C@H](Cc1ccccc1)NC(=O)[C@H](CC(=O)O)NC(=O)[C@H](CCC(N)=O)NC(=O)[C@H](C)NC(=O)[C@H](CCCNC(=N)N)NC(=O)[C@H](CCCNC(=N)N)NC(=O)[C@H](CO)NC(=O)[C@H](CCC(=O)O)NC(=O)[C@H](CCSC)NC(=O)[C@H](CCC(N)=O)NC(=O)[C@H](CCCCN)NC(=O)[C@H](CO)NC(=O)[C@H](CC(C)C)NC(=O)[C@H](CC(=O)O)NC(=O)[C@H](CO)NC(=O)[C@@H](NC(=O)[C@H](Cc1ccccc1)NC(=O)[C@@H](NC(=O)CNC(=O)[C@H](CCC(N)=O)NC(=O)[C@@H](CO)NC(=O)[C@@H](N)Cc1c[nH]cn1)[C@@H](C)O)[C@@H](C)O)[C@@H](C)CC)C(N)=O)C(=O)O [(78)] (H-H[dS]QGTFTSDLSKQMESRRAQDFIEWLKSGGPSSGAPPPSK([γGlu-Palmitoyl])-NH2)	> 1000 µg/mL	> 1000 µg/mL	4.2 pM
CCCCCCCCCCCCCCCC(=O)N[C@@H](CCC(=O)NCCCC[C@H](NC(=O)[C@H](CO)NC(=O)[C@@H]1CCCN1C(=O)[C@@H]1CCCN1C(=O)[C@@H]1CCCN1C(=O)[C@H](C)NC(=O)CNC(=O)[C@H](CO)NC(=O)[C@H](CO)NC(=O)[C@@H]1CCCN1C(=O)CNC(=O)CNC(=O)[C@H](CCCCN)NC(=O)[C@H](CCCCN)NC(=O)[C@H](CC(C)C)NC(=O)[C@H](Cc1c[nH]c2ccccc12)NC(=O)[C@H](CCC(=O)O)NC(=O)[C@@H](NC(=O)[C@H](Cc1ccccc1)NC(=O)[C@H](CC(=O)O)NC(=O)[C@H](CCC(N)=O)NC(=O)[C@H](C)NC(=O)[C@H](CCCNC(=N)N)NC(=O)[C@H](CCCNC(=N)N)NC(=O)[C@H](CO)NC(=O)[C@H](CCC(=O)O)NC(=O)[C@H](CCSC)NC(=O)[C@H](CCC(N)=O)NC(=O)[C@H](CCCCN)NC(=O)[C@H](CO)NC(=O)[C@H](CC(C)C)NC(=O)[C@H](CC(=O)O)NC(=O)[C@H](CO)NC(=O)[C@@H](NC(=O)[C@H](Cc1ccccc1)NC(=O)[C@@H](NC(=O)CNC(=O)[C@H](CCC(N)=O)NC(=O)[C@@H](CO)NC(=O)[C@@H](N)Cc1c[nH]cn1)[C@@H](C)O)[C@@H](C)O)[C@@H](C)CC)C(N)=O)C(=O)O [(77)] (H-H[dS]QGTFTSDLSKQMESRRAQDFIEWLKKGGPSSGAPPPSK([γGlu-Palmitoyl])-NH2)	> 1000 µg/mL	> 1000 µg/mL	–
